The record followed here is patent US11661420B2 (NANJING HEPO PHARMACEUTICAL CO., LTD, priority 2019, dated 2023).

The subject of one series is HBV e antigen (HBeAg). The experiment in a line: Cryopreserved PHH assay, ELISA of hepatitis B e antigen in culture supernatant. It is filed as cell-based, type D HBV in human primary hepatocytes (PHH). The following applies: Hepatitis B virus, 240 h, read-out: HBeAg EC50. How it is done:
(§1) The inhibitory effect of the compounds on HBV was evaluated by real-time quantitative qPCR assay (real time-qPCR) to detect the HBV DNA content in human primary hepatocytes (PHH) culture supernatant, and ELISA to detect the hepatitis B surface antigen and e antigen content, the EC50 value of the compounds was used as an indicator; meanwhile, the cell viability was detected by CellTiter-Glo to evaluate the toxicity of the compounds to cells.
(§2) 3.1. On day 0, PHH (1.32×10^5 cells/well) was seeded into a 48-well plate and incubated overnight at 37° C., 5% CO2.
(§3) 3.2. On the first day, PHH was infected with type D HBV (concentrated from HepDE19 cell culture supernatant).
(§4) 3.3 On the second day, the test compound was diluted to 7 concentrations with 5-fold serial dilution. Reference compound Peg-IFN-α 2a, 7 concentrations with 3-fold serial dilution. Compounds with different concentrations were added to the culture wells, and the wells were double-duplicated wells. The final concentration of DMSO in the culture medium was 2%.
(§5) 3.4 On the 4th, 6th, and 8th day, the culture medium was replaced by a fresh culture medium containing the compound.
(§6) 3.5 After collecting the culture supernatant from the culture well on the 10th day, the cell viability was tested with CellTiter-Glo. A portion of the culture supernatant was collected for ELISA determination to detect the content of hepatitis B virus surface antigen and e antigen; a portion of the sample was collected for extract DNA using a high-throughput DNA purification kit, referring to the product instructions for the specific steps.
(§7) 3.7 ELISA determination of hepatitis B virus surface antigen and e antigen
(§8) The specific steps can be referred to the product manual, the steps are briefly described as follows: 50 μL of sample and standard was added to the reaction plate respectively, 50 μL of enzyme conjugate was added to each well, the mixture was shaken and mixed well, then kept in a warm bath at 37° C. for 60 minutes, the plate was washed with washing solution for 5 times, 50 μL of the luminescent substrate was added to each well, the mixture was mixed well, and the reaction was carried out in the dark at room temperature for 10 minutes, and finally the chemiluminescence intensity was detected with the instrument.
(§9) Calculation of the inhibition percentage of HBV DNA, HBV surface antigen and e antigen. % Inh.=(1−value of the sample/value of DMSO control)×100.
On the technique in general: In an ELISA, binding on a coated surface is turned into a signal by an enzyme label.

The next series concerns HBV DNA. Kind of series: Cryopreserved PHH assay, real-time qPCR of HBV DNA in culture supernatant. It is filed as cell-based, type D HBV in human primary hepatocytes (PHH). The following applies: Hepatitis B virus, 240 h; PHH infected with type D HBV, supernatant day 10, qPCR. How it is done: as §1, §2, §3, §4, §5, §6
3.6 Quantitative PCR to detect the content of HBV DNA
The qPCR reaction mixture, sample and standard were added to the 384 well reaction plate. PCR reactions: 95° C., 10 min; 95° C., 15 sec, 60° C., 1 min, 40 cycles.
as §9

Series [1] in a line: Cryopreserved PHH assay, cell viability by CellTiter-Glo. The conditions noted are these: human, cryopreserved primary human hepatocytes (PHH), day 10, CellTiter-Glo. It is filed as cell-based. The method, then: as §1, §2, §4, §5, §6
Calculation of the percentage of cell viability: % viability=the luminescence value of the sample/the luminescence value of the DMSO control×100.
(In general: In ATP-based viability assays light output follows the ATP content of the culture.)

Series [2] has as its system HBV surface antigen (HBsAg). The experiment in a line: Cryopreserved PHH assay, ELISA of hepatitis B surface antigen in culture supernatant. It is filed as cell-based, type D HBV in human primary hepatocytes (PHH). The following applies: Hepatitis B virus, 240 h, read-out: HBsAg EC50. How it is done: as §1, §2, §3, §4, §5, §6, §7, §8, §9

A word on the EC50: it is the concentration at which the effect is half-maximal. For orientation: CC50 means the concentration at which the toxic effect on the cells reaches its halfway point. A higher CC50 goes with better tolerance by the cells.

Take `CC1(C)N=C(c2nc(-c3ccc(C(=O)O)cc3)cs2)Nc2c(OC(F)(F)F)cccc21` [Compound I-65, 4-(2-(4,4-dimethyl-8-trifluoromethoxyl-1,4-dihydroquinazolin-2-yl)thiazol-4-yl)benzoic acid]: the EC50 in the series on HBV e antigen (HBeAg) was 3.3 nM; in the series on HBV DNA, 3 nM; in series [2], 39.5 nM. The compound also returned a CC50 at 8 days in series [1] above 50000 nM.

On to `CC1(C)N=C(c2nc(-c3ccc(C(=O)O)cc3)cs2)Nc2c(Br)cccc21` [Compound I-22, 4-(2-(8-bromo-4,4-dimethyl-1,4-dihydroquinazolin-2-yl)thiazol-4-yl)benzoic acid], for which the EC50 in the series with HBV e antigen (HBeAg) was 3.8 nM; in the series on HBV DNA, 10 nM; in series [2] it was above 50000 nM. Further, in series [1], the CC50 at 8 days was above 50000 nM.

As for `CC1(C)N=C(c2nc(-c3ccc(C(=O)O)cc3)cs2)Nc2ccccc21` [Compound I-20, 4-(2-(4,4-dimethyl-1,4-dihydroquinazolin-2-yl)thiazol-4-yl)benzoic acid], the figures for the EC50 (in the series on HBV e antigen (HBeAg); with HBV DNA; in series [2]) were 4 nM, 5 nM and 32 nM, respectively. For the same compound, in series [1], the CC50 at 8 days was above 50000 nM.

As to `CC1(C)N=C(c2nc(-c3ccc(C(=O)O)cc3)cs2)Nc2c(C(F)(F)F)cccc21` [Compound I-23, 4-(2-(4,4-dimethyl-8-trifluoromethyl-1,4-dihydroquinazolin-2-yl)thiazol-4-yl)benzoic acid], the figures for the EC50 (in the series with HBV e antigen (HBeAg); with HBV DNA; in series [2]) were 2 nM, 8.3 nM and above 50000 nM, respectively. The same compound showed a CC50 at 8 days in series [1] above 50000 nM.

Consider `CC1(C)OC(c2nc(-c3ccc(C(=O)O)cc3)cs2)=Nc2ccccc21` [Compound I-67, 4-(2-(4,4-dimethyl-4H-benzo[d] [1,3]oxazin-2-yl)thiazol-4-yl)benzoic acid], for which the EC50 with HBV e antigen (HBeAg) was 4.2 nM; in the series with HBV DNA, 17.9 nM; in series [2], 147 nM. Moreover, the CC50 at 8 days in series [1] is above 50000 nM.

For the compound `O=C(O)C1CCN(c2ccc3c(=O)c4cccc(Cl)c4oc3c2)C1` (centres unmarked) [A, reference compound], the EC50 was found to be 6880 nM in the series with HBV e antigen (HBeAg), 576 nM in the series with HBV DNA and 9930 nM in series [2]. In series [1], the CC50 at 8 days was above 50000 nM.

With `CC1(C)N=C(c2nc(-c3ccc(C(=O)O)cc3)cs2)Nc2c(Cl)cccc21` [Compound I-4, 4-(2-(8-chloro-4,4-dimethyl-1,4-dihydroquinazolin-2-yl)thiazol-4-yl)benzoic acid], the EC50 with HBV e antigen (HBeAg) came to 3.2 nM; in the series on HBV DNA, 4.12 nM; in series [2] it was 10.2 nM. The compound also had a CC50 at 8 days in series [1] above 50000 nM.

On to `CCOC(=O)c1ccc(-c2csc(C3=NC(C)(C)c4ccccc4N3)n2)cc1` [Compound I-73], for which the EC50 was 12 nM in the series on HBV e antigen (HBeAg), 13.4 nM in the series with HBV DNA and 115 nM in series [2]. The CC50 at 8 days in series [1] was above 50000 nM.

With `CC1(C)N=C(c2nc(-c3ccc(C(=O)O)cc3)cs2)Nc2c(F)cc(F)cc21` [Compound I-70, 4-(2-(6,8-difluoro-4,4-dimethyl-1,4-dihydroquinazolin-2-yl)thiazol-4-yl)benzoic acid], the EC50 is 5.2 nM with HBV e antigen (HBeAg), 7.12 nM in the series with HBV DNA and 40.7 nM in series [2]. In series [1], this compound showed a CC50 at 8 days above 50000 nM.

On to `O=C(O)c1ccc(-c2csc(-c3cc(=O)c4cccc(Cl)c4[nH]3)n2)cc1` [Compound I-13, 4-(2-(8-chloro-4-oxo-1,4-dihydroquinolin-2-yl)thiazol-4-yl)benzoic acid], for which the EC50 in the series with HBV e antigen (HBeAg) was above 5000 nM; in the series on HBV DNA, above 5000 nM; in series [2], above 50000 nM. In series [1], this compound came in with a CC50 at 8 days above 50000 nM.

For the compound `CC1(C)N=C(c2nc(-c3ccc(C(=O)O)cn3)cs2)Nc2ccccc21` [Compound I-34], the figures for the EC50 (in the series with HBV e antigen (HBeAg); with HBV DNA; in series [2]) were 66.4 nM, 171 nM and 594 nM, respectively. Besides, the CC50 at 8 days in series [1] was above 50000 nM.
